# According to ChEMBL document CHEMBL1671854, “ramR mutations involved in efflux-mediated multidrug resistance in Salmonella enterica serovar Typhimurium” (2008):
# Legend:
# Assay type in all cases: functional, Salmonella enterica subsp. enterica serovar Typhimurium
# Salmonella typhimurium [1] = experiment: Antimicrobial activity against multidrug-resistant Salmonella enterica serovar Typhimurium 902SA92 harboring GyrA S83A and D87N, GyrB S464F and ParC S80I mutant genes by agar doubling dilution method
# Salmonella typhimurium [2] = experiment: Antimicrobial activity against multidrug-resistant Salmonella enterica serovar Typhimurium 902SA92 harboring plasmid encoded RamR gene, GyrA S83A and D87N, GyrB S464F and ParC S80I mutant genes by agar doubling dilution method
# Salmonella typhimurium [3] = experiment: Antimicrobial activity against ramA::kan-deficient Salmonella enterica serovar Typhimurium 902SA92 harboring GyrA S83A and D87N, GyrB S464F and ParC S80I mutant genes by agar doubling dilution method
# Salmonella typhimurium [4] = experiment: Antimicrobial activity against multidrug-resistant Salmonella enterica serovar Typhimurium 102SA00 harboring GyrA S83A and D87N, GyrB S464F and ParC S80I mutant genes by agar doubling dilution method
# Salmonella typhimurium [5] = experiment: Antimicrobial activity against multidrug-resistant Salmonella enterica serovar Typhimurium 102SA00 harboring plasmid encoded RamR gene, GyrA S83A and D87N, GyrB S464F and ParC S80I mutant genes by agar doubling dilution method
# Salmonella typhimurium [6] = experiment: Antimicrobial activity against ramA::kan-deficient Salmonella enterica serovar Typhimurium 102SA00 harboring GyrA S83A and D87N, GyrB S464F and ParC S80I mutant genes by agar doubling dilution method
# Salmonella typhimurium [7] = experiment: Antimicrobial activity against multidrug-resistant Salmonella enterica serovar Typhimurium BN10055 harboring GyrA S83Y mutant gene by agar doubling dilution method
# Salmonella typhimurium [8] = experiment: Antimicrobial activity against multidrug-resistant Salmonella enterica serovar Typhimurium BN10055 harboring plasmid encoded RamR gene, GyrA S83Y mutant gene by agar doubling dilution method
# Salmonella typhimurium [9] = experiment: Antimicrobial activity against ramA::kan-deficient Salmonella enterica serovar Typhimurium BN10055 harboring GyrA S83Y mutant gene by agar doubling dilution method
# Salmonella typhimurium [10] = experiment: Antimicrobial activity against multidrug-resistant Salmonella enterica serovar Typhimurium 543SA98 harboring GyrA […] mutant gene by agar doubling dilution method
# Salmonella typhimurium [11] = experiment: Antimicrobial activity against multidrug-resistant Salmonella enterica serovar Typhimurium 543SA98 harboring plasmid encoded RamR gene, GyrA S83Y mutant gene by agar doubling dilution method
# Salmonella typhimurium [12] = experiment: Antimicrobial activity against ramA::kan-deficient Salmonella enterica serovar Typhimurium 543SA98 harboring GyrA S83Y mutant gene by agar doubling dilution method
# Salmonella typhimurium [13] = experiment: Antimicrobial activity against multidrug-resistant Salmonella enterica serovar Typhimurium BN9945 by agar doubling dilution method
# Salmonella typhimurium [14] = experiment: Antimicrobial activity against multidrug-resistant Salmonella enterica serovar Typhimurium BN9945 harboring plasmid encoded RamR gene by agar doubling dilution method
# Salmonella typhimurium [15] = experiment: Antimicrobial activity against ramA::kan-deficient Salmonella enterica serovar Typhimurium BN9945 by agar doubling dilution method
# Salmonella typhimurium [16] = experiment: Antimicrobial activity against multidrug-resistant Salmonella enterica serovar Typhimurium BN9181 by agar doubling dilution method
# Salmonella typhimurium [17] = experiment: Antimicrobial activity against multidrug-resistant Salmonella enterica serovar Typhimurium BN9181 harboring plasmid encoded RamR gene by agar doubling dilution method
# Salmonella typhimurium [18] = experiment: Antimicrobial activity against ramA::kan-deficient Salmonella enterica serovar Typhimurium BN9181 by agar doubling dilution method
# Salmonella typhimurium [19] = experiment: Antimicrobial activity against Salmonella enterica serovar Typhimurium S/921495 by agar doubling dilution method
# Salmonella typhimurium [20] = experiment: Antimicrobial activity against marR::kan-deficient Salmonella enterica serovar Typhimurium S/921495 by agar doubling dilution method
# Salmonella typhimurium [21] = experiment: Antimicrobial activity against marR-deficient Salmonella enterica serovar Typhimurium S/921495 by agar doubling dilution method
# Salmonella typhimurium [22] = experiment: Antimicrobial activity against marA::kan-deficient Salmonella enterica serovar Typhimurium S/921495 by agar doubling dilution method
# Salmonella typhimurium [23] = experiment: Antimicrobial activity against soxR::kan-deficient Salmonella enterica serovar Typhimurium S/921495 by agar doubling dilution method
# Salmonella typhimurium [24] = experiment: Antimicrobial activity against soxS::kan-deficient Salmonella enterica serovar Typhimurium S/921495 by agar doubling dilution method
# Salmonella typhimurium [25] = experiment: Antimicrobial activity against Salmonella enterica serovar Typhimurium S/921495 harboring plasmid encoded RamR gene by agar doubling dilution method
# Salmonella typhimurium [26] = experiment: Antimicrobial activity against ramR-deficient Salmonella enterica serovar Typhimurium S/921495 harboring plasmid encoded RamR gene by agar doubling dilution method
# Salmonella typhimurium [27] = experiment: Antimicrobial activity against ramA::kan-deficient Salmonella enterica serovar Typhimurium S/921495 by agar doubling dilution method
# Salmonella typhimurium [28] = experiment: Antimicrobial activity against Salmonella enterica serovar Typhimurium BN18 by agar doubling dilution method
# Salmonella typhimurium [29] = experiment: Antimicrobial activity against Salmonella enterica serovar Typhimurium BN18 harboring plasmid encoded RamR gene by agar doubling dilution method
# Salmonella typhimurium [30] = experiment: Antimicrobial activity against ramA::kan-deficient Salmonella enterica serovar Typhimurium BN18 by agar doubling dilution method
# Salmonella typhimurium [31] = experiment: Antimicrobial activity against Salmonella enterica serovar Typhimurium BN18/21 by agar doubling dilution method
# Salmonella typhimurium [32] = experiment: Antimicrobial activity against Salmonella enterica serovar Typhimurium BN18/21 harboring plasmid encoded RamR gene by agar doubling dilution method
# Salmonella typhimurium [33] = experiment: Antimicrobial activity against ramA::kan-deficient Salmonella enterica serovar Typhimurium BN18/21 by agar doubling dilution method
# Salmonella typhimurium [34] = experiment: Antimicrobial activity against Salmonella enterica serovar Typhimurium BN18/41 harboring GyrA G81C,acrR mutant genes by agar doubling dilution method
# Salmonella typhimurium [35] = experiment: Antimicrobial activity against Salmonella enterica serovar Typhimurium BN18/41 harboring plasmid encoded RamR gene, GyrA G81C,acrR mutant genes by agar doubling dilution method
# Salmonella typhimurium [36] = experiment: Antimicrobial activity against ramA::kan-deficient Salmonella enterica serovar Typhimurium BN18/41 harboring plasmid encoded RamR gene, GyrA G81C,acrR mutant genes by agar doubling dilution method
# Salmonella typhimurium [37] = experiment: Antimicrobial activity against Salmonella enterica serovar Typhimurium BN18/71 harboring GyrA G81C, acrR mutant genes by agar doubling dilution method
# Salmonella typhimurium [38] = experiment: Antimicrobial activity against Salmonella enterica serovar Typhimurium BN18/71 harboring plasmid encoded RamR gene, GyrA G81C,acrR mutant genes by agar doubling dilution method
# Salmonella typhimurium [39] = experiment: Antimicrobial activity against ramA::kan-deficient Salmonella enterica serovar Typhimurium BN18/71 harboring plasmid encoded RamR gene, GyrA G81C,acrR mutant genes by agar doubling dilution method
# Salmonella typhimurium [40] = experiment: Antimicrobial activity against ramR::kan-deficient Salmonella enterica serovar Typhimurium S/921495 by agar doubling dilution method
# Salmonella typhimurium [41] = experiment: Antimicrobial activity against ramR-deficient Salmonella enterica serovar Typhimurium S/921495 by agar doubling dilution method
compound,measurement,setting,value
CCn1cc(C(=O)O)c(=O)c2ccc(C)nc21 [NALIDIXIC ACID],MIC,Salmonella typhimurium [1],> 4100 µg/mL
same,MIC,Salmonella typhimurium [2],4100 µg/mL
same,MIC,Salmonella typhimurium [3],4100 µg/mL
same,MIC,Salmonella typhimurium [4],> 4100 µg/mL
same,MIC,Salmonella typhimurium [5],4100 µg/mL
same,MIC,Salmonella typhimurium [6],4100 µg/mL
same,MIC,Salmonella typhimurium [7],> 4100 µg/mL
same,MIC,Salmonella typhimurium [8],> 4100 µg/mL
same,MIC,Salmonella typhimurium [9],512 µg/mL
same,MIC,Salmonella typhimurium [10],1020 µg/mL
same,MIC,Salmonella typhimurium [11],512 µg/mL
same,MIC,Salmonella typhimurium [12],512 µg/mL
same,MIC,Salmonella typhimurium [13],1020 µg/mL
same,MIC,Salmonella typhimurium [14],512 µg/mL
same,MIC,Salmonella typhimurium [15],512 µg/mL
same,MIC,Salmonella typhimurium [16],4 µg/mL
same,MIC,Salmonella typhimurium [17],4 µg/mL
same,MIC,Salmonella typhimurium [18],4 µg/mL
same,MIC,Salmonella typhimurium [19],4 µg/mL
same,MIC,Salmonella typhimurium [20],2 µg/mL
same,MIC,Salmonella typhimurium [21],2 µg/mL
same,MIC,Salmonella typhimurium [22],4 µg/mL
same,MIC,Salmonella typhimurium [23],2 µg/mL
same,MIC,Salmonella typhimurium [24],4 µg/mL
same,MIC,Salmonella typhimurium [25],4 µg/mL
same,MIC,Salmonella typhimurium [26],4 µg/mL
same,MIC,Salmonella typhimurium [27],4 µg/mL
same,MIC,Salmonella typhimurium [28],4 µg/mL
same,MIC,Salmonella typhimurium [29],4 µg/mL
same,MIC,Salmonella typhimurium [30],4 µg/mL
same,MIC,Salmonella typhimurium [31],64 µg/mL
same,MIC,Salmonella typhimurium [32],8 µg/mL
same,MIC,Salmonella typhimurium [33],8 µg/mL
same,MIC,Salmonella typhimurium [34],> 4100 µg/mL
same,MIC,Salmonella typhimurium [35],4100 µg/mL
same,MIC,Salmonella typhimurium [36],4100 µg/mL
same,MIC,Salmonella typhimurium [37],> 4100 µg/mL
same,MIC,Salmonella typhimurium [38],4100 µg/mL
same,MIC,Salmonella typhimurium [39],4100 µg/mL
same,MIC,Salmonella typhimurium [40],16 µg/mL
same,MIC,Salmonella typhimurium [41],16 µg/mL
CN(C)[C@@H]1C(O)=C(C(N)=O)C(=O)[C@@]2(O)C(O)=C3C(=O)c4c(O)cccc4[C@@](C)(O)[C@H]3C[C@@H]12 [TETRACYCLINE],MIC,Salmonella typhimurium [1],256 µg/mL
same,MIC,Salmonella typhimurium [2],256 µg/mL
same,MIC,Salmonella typhimurium [3],256 µg/mL
same,MIC,Salmonella typhimurium [4],256 µg/mL
same,MIC,Salmonella typhimurium [5],256 µg/mL
same,MIC,Salmonella typhimurium [6],256 µg/mL
same,MIC,Salmonella typhimurium [7],256 µg/mL
same,MIC,Salmonella typhimurium [8],256 µg/mL
same,MIC,Salmonella typhimurium [9],64 µg/mL
same,MIC,Salmonella typhimurium [10],128 µg/mL
same,MIC,Salmonella typhimurium [11],32 µg/mL
same,MIC,Salmonella typhimurium [12],32 µg/mL
same,MIC,Salmonella typhimurium [13],128 µg/mL
same,MIC,Salmonella typhimurium [14],32 µg/mL
same,MIC,Salmonella typhimurium [15],32 µg/mL
same,MIC,Salmonella typhimurium [16],32 µg/mL
same,MIC,Salmonella typhimurium [17],32 µg/mL
same,MIC,Salmonella typhimurium [18],32 µg/mL
same,MIC,Salmonella typhimurium [19],1 µg/mL
same,MIC,Salmonella typhimurium [20],1 µg/mL
same,MIC,Salmonella typhimurium [21],1 µg/mL
same,MIC,Salmonella typhimurium [22],1 µg/mL
same,MIC,Salmonella typhimurium [23],1 µg/mL
same,MIC,Salmonella typhimurium [24],1 µg/mL
same,MIC,Salmonella typhimurium [25],1 µg/mL
same,MIC,Salmonella typhimurium [26],1 µg/mL
same,MIC,Salmonella typhimurium [27],1 µg/mL
same,MIC,Salmonella typhimurium [28],1 µg/mL
same,MIC,Salmonella typhimurium [29],1 µg/mL
same,MIC,Salmonella typhimurium [30],1 µg/mL
same,MIC,Salmonella typhimurium [31],4 µg/mL
same,MIC,Salmonella typhimurium [32],1 µg/mL
same,MIC,Salmonella typhimurium [33],1 µg/mL
same,MIC,Salmonella typhimurium [34],8 µg/mL
same,MIC,Salmonella typhimurium [35],2 µg/mL
same,MIC,Salmonella typhimurium [36],2 µg/mL
same,MIC,Salmonella typhimurium [37],16 µg/mL
same,MIC,Salmonella typhimurium [38],2 µg/mL
same,MIC,Salmonella typhimurium [39],2 µg/mL
same,MIC,Salmonella typhimurium [40],4 µg/mL
same,MIC,Salmonella typhimurium [41],4 µg/mL
